Measurements published in US12139492B2 (Endotarget Inc., priority 2021, dated 2024).
pIC50: −log10 of the molar value.

Tests used:
Format in all cases: cell-based
BTK = BTK (Homo sapiens, UniProt Q06187); assay: BTK degradation, DC50 and Dmax of Table 1 (cell line not given); parameters: endogenous in cells; settings: for DC50: concentration giving 50% reduction of BTK expression level
Mino cells = assay: Antiproliferative effect, MTS cell viability assay, Mino cells; settings: Homo sapiens, MINO, Mino mantle cell lymphoma cells; read-out: IC50 (anti-proliferation) Mino cells
Method in brief: (§1)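 MTS read-out, A490 of formazan from metabolically active cells; compound 0–10 μM (0, 0.001, 0.01, 0.1, 1, 10 μM), 72 h exposure.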

JeKo-1 cells = assay: Antiproliferative effect, MTS cell viability assay, JeKo-1 cells; settings: Homo sapiens; JeKo-1 mantle cell lymphoma cells; read-out: IC50 (anti-proliferation) JeKO-1 cells
Method in brief: as §1

BTK, sequence (Q06187 whole entry): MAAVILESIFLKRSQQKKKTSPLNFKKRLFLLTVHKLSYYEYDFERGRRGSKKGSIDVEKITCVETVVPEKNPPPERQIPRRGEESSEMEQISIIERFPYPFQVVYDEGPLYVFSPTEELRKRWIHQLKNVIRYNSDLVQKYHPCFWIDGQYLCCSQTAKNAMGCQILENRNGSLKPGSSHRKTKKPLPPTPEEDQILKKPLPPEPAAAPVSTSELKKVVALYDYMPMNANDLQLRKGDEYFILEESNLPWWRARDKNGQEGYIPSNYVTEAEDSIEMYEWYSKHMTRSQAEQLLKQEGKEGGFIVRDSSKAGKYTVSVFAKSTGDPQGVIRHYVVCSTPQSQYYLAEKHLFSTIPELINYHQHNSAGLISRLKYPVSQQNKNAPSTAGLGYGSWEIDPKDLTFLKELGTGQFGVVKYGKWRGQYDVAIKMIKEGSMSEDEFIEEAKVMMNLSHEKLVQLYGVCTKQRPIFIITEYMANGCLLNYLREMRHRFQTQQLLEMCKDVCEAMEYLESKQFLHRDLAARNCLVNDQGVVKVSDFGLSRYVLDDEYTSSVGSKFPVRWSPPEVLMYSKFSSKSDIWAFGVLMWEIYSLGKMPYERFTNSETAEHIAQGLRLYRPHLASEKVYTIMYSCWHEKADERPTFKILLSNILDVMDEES

Dmax (BTK) | DC50 (BTK) | Compound | pIC50 (Mino cells) | pIC50 (JeKo-1 cells)
> 90% | 10 to 50 nM | Nc1ncnc2c1c(-c1ccc(Oc3ccccc3)cc1)nn2[C@@H]1CCCN(C(=O)N2CCC(CCN3CCC(c4ccc5c(c4)C(=O)N(C4CCC(=O)NC4=O)C5=O)CC3)CC2)C1 (stereo partly drawn) [Compound 73, 5-(1-(2-(1-((R)-3-(4-amino-3-(4-phenoxyphenyl)-1H-pyrazolo[3,4-d]pyrimidin-1-yl)piperidine-1-carbonyl)piperidin-4-yl)ethyl)piperidin-4-yl)-2-(2,6-dioxopiperidin-3-yl)isoindoline-1,3-dione] | 5.00 to 6.00 | < 5.00
> 90% | < 10 nM | Nc1ncnc2c1c(-c1ccc(Oc3ccccc3)cc1)nn2C1CCN(CCOCCOCCC2CCN(c3ccc4c(c3)C(=O)N(C3CCC(=O)NC3=O)C4=O)CC2)CC1 (centres unmarked) [Compound 17, 5-(4-(2-(2-(2-(4-(4-amino-3-(4-phenoxyphenyl)-1H-pyrazolo[3,4-d]pyrimidin-1-yl)piperidin-1-yl)ethoxy)ethoxy)ethyl)piperidin-1-yl)-2-(2,6-dioxopiperidin-3-yl)isoindoline-1,3-dione] | 5.00 to 6.00 | 5.00 to 6.00
> 90% | < 10 nM | Nc1ncnc2c1c(-c1ccc(Oc3ccccc3)cc1)nn2C1CCN(CCOCCOCCN2CCC(c3ccc4c(c3)C(=O)N(C3CCC(=O)NC3=O)C4=O)CC2)CC1 (centres unmarked) [Compound 9, 5-(1-(2-(2-(2-(4-(4-amino-3-(4-phenoxyphenyl)-1H-pyrazolo[3,4-d]pyrimidin-1-yl)piperidin-1-yl)ethoxy)ethoxy)ethyl)piperidin-4-yl)-2-(2,6-dioxopiperidin-3-yl)isoindoline-1,3-dione] | 5.00 to 6.00 | 5.00 to 6.00
> 50% | > 50 nM | Nc1ncnc2c1c(-c1ccc(Oc3ccccc3)cc1)nn2[C@@H]1CCCN(C(=O)N2CCC(c3ccc4c(c3)C(=O)N(C3CCC(=O)NC3=O)C4=O)CC2)C1 (stereo partly drawn) [Compound 47, 5-(1-((R)-3-(4-amino-3-(4-phenoxyphenyl)-1H-pyrazolo[3,4-d]pyrimidin-1-yl)piperidine-1-carbonyl)piperidin-4-yl)-2-(2,6-dioxopiperidin-3-yl)isoindoline-1,3-dione] | < 5.00 | < 5.00
> 90% | > 50 nM | Nc1ncnc2c1c(-c1ccc(Oc3ccccc3)cc1)nn2[C@@H]1CCCN(CC2CCN(C(=O)N3CCC(CCN4CCN(c5ccc6c(c5)CN(C5CCC(=O)NC5=O)C6=O)CC4)CC3)CC2)C1 (stereo partly drawn) [Compound 34, 3-(5-(4-(2-(1-(4-(((R)-3-(4-amino-3-(4-phenoxyphenyl)-1H-pyrazolo[3,4-d]pyrimidin-1-yl)piperidin-1-yl)methyl)piperidine-1-carbonyl)piperidin-4-yl)ethyl)piperazin-1-yl)-1-oxoisoindolin-2-yl)piperidine-2,6-dione] | 5.00 to 6.00 | 5.00 to 6.00
> 90% | < 10 nM | Nc1ncnc2c1c(-c1ccc(Oc3ccccc3)cc1)nn2[C@@H]1CCCN(CC2CCN(CCN3CCC(c4ccc5c(c4)C(=O)N(C4CCC(=O)NC4=O)C5=O)CC3)CC2)C1 (stereo partly drawn) [Compound 135, 5-(1-(2-(4-(((R)-3-(4-amino-3-(4-phenoxyphenyl)-1H-pyrazolo[3,4-d]pyrimidin-1-yl)piperidin-1-yl)methyl)piperidin-1-yl)ethyl)piperidin-4-yl)-2-(2,6-dioxopiperidin-3-yl)isoindoline-1,3-dione] | > 6.00 | 5.00 to 6.00
> 75% | 10 to 50 nM | Nc1ncnc2c1c(-c1ccc(Oc3ccccc3)cc1)nn2[C@@H]1CCCN(C2CCN(C(=O)N3CCC(CCC4CCN(c5ccc6c(c5)C(=O)N(C5CCC(=O)NC5=O)C6=O)CC4)CC3)CC2)C1 (stereo partly drawn) [Compound 185, 5-(4-(2-(1-((R)-3-(4-amino-3-(4-phenoxyphenyl)-1H-pyrazolo[3,4-d]pyrimidin-1-yl)-[1,4′-bipiperidine]-1′-carbonyl)piperidin-4-yl)ethyl)piperidin-1-yl)-2-(2,6-dioxopiperidin-3-yl)isoindoline-1,3-dione] | < 5.00 | < 5.00
> 90% | 10 to 50 nM | Nc1ncnc2c1c(-c1ccc(Oc3ccccc3)cc1)nn2C1CCN(C(=O)N2CCN(CCN3CCN(c4ccc5c(c4)C(=O)N(C4CCC(=O)NC4=O)C5=O)CC3)CC2)CC1 (centres unmarked) [Compound 95, 5-(4-(2-(4-(4-(4-amino-3-(4-phenoxyphenyl)-1H-pyrazolo[3,4-d]pyrimidin-1-yl)piperidine-1-carbonyl)piperazin-1-yl)ethyl)piperazin-1-yl)-2-(2,6-dioxopiperidin-3-yl)isoindoline-1,3-dione] | 5.00 to 6.00 | > 6.00
> 90% | 10 to 50 nM | Nc1ncnc2c1c(-c1ccc(Oc3ccccc3)cc1)nn2[C@@H]1CCCN(C(=O)N2CCC(CC3CCN(c4ccc5c(c4)C(=O)N(C4CCC(=O)NC4=O)C5=O)CC3)CC2)C1 (stereo partly drawn) [Compound 59, 5-(4-((1-((R)-3-(4-amino-3-(4-phenoxyphenyl)-1H-pyrazolo[3,4-d]pyrimidin-1-yl)piperidine-1-carbonyl)piperidin-4-yl)methyl)piperidin-1-yl)-2-(2,6-dioxopiperidin-3-yl)isoindoline-1,3-dione] | > 6.00 | > 6.00
> 50% | > 50 nM | Nc1ncnc2c1c(-c1ccc(Oc3ccccc3)cc1)nn2[C@@H]1CCCN(C2CCN(C(=O)N3CCN(c4ccc5c(c4)CN(C4CCC(=O)NC4=O)C5=O)CC3)CC2)C1 (stereo partly drawn) [Compound 160, 3-(5-(4-((R)-3-(4-amino-3-(4-phenoxyphenyl)-1H-pyrazolo[3,4-d]pyrimidin-1-yl)-[1,4′-bipiperidine]-1′-carbonyl)piperazin-1-yl)-1-oxoisoindolin-2-yl)piperidine-2,6-dione] | 5.00 to 6.00 | < 5.00
> 75% | > 50 nM | Nc1ncnc2c1c(-c1ccc(Oc3ccccc3)cc1)nn2[C@@H]1CCCN(C(=O)N2CCN(CCCN3CCC(c4ccc5c(c4)CN(C4CCC(=O)NC4=O)C5=O)CC3)CC2)C1 (stereo partly drawn) [Compound 112, 3-(5-(1-(3-(4-((R)-3-(4-amino-3-(4-phenoxyphenyl)-1H-pyrazolo[3,4-d]pyrimidin-1-yl)piperidine-1-carbonyl)piperazin-1-yl)propyl)piperidin-4-yl)-1-oxoisoindolin-2-yl)piperidine-2,6-dione] | 5.00 to 6.00 | 5.00 to 6.00
> 90% | 10 to 50 nM | Nc1ncnc2c1c(-c1ccc(Oc3ccccc3)cc1)nn2C1CCN(CCOCCN2CCC(c3ccc4c(c3)CN(C3CCC(=O)NC3=O)C4=O)CC2)CC1 (centres unmarked) [Compound 12, 3-(5-(1-(2-(2-(4-(4-amino-3-(4-phenoxyphenyl)-1H-pyrazolo[3,4-d]pyrimidin-1-yl)piperidin-1-yl)ethoxy)ethyl)piperidin-4-yl)-1-oxoisoindolin-2-yl)piperidine-2,6-dione] | > 6.00 | > 6.00
> 75% | > 50 nM | Nc1ncnc2c1c(-c1ccc(Oc3ccccc3)cc1)nn2[C@@H]1CCCN(C2CCN(C(=O)N3CCN(CCCN4CCN(c5ccc6c(c5)C(=O)N(C5CCC(=O)NC5=O)C6=O)CC4)CC3)CC2)C1 (stereo partly drawn) [Compound 187, 5-(4-(3-(4-((R)-3-(4-amino-3-(4-phenoxyphenyl)-1H-pyrazolo[3,4-d]pyrimidin-1-yl)-[1,4′-bipiperidine]-1′-carbonyl)piperazin-1-yl)propyl)piperazin-1-yl)-2-(2,6-dioxopiperidin-3-yl)isoindoline-1,3-dione] | 5.00 to 6.00 | 5.00 to 6.00
> 90% | 10 to 50 nM | Nc1ncnc2c1c(-c1ccc(Oc3ccccc3)cc1)nn2[C@@H]1CCCN(C2CCN(CCN3CCC(c4ccc5c(c4)C(=O)N(C4CCC(=O)NC4=O)C5=O)CC3)CC2)C1 (stereo partly drawn) [Compound 149, 5-(1-(2-((R)-3-(4-amino-3-(4-phenoxyphenyl)-1H-pyrazolo[3,4-d]pyrimidin-1-yl)-[1,4′-bipiperidin]-1′-yl)ethyl)piperidin-4-yl)-2-(2,6-dioxopiperidin-3-yl)isoindoline-1,3-dione] | 5.00 to 6.00 | < 5.00
> 90% | 10 to 50 nM | Nc1ncnc2c1c(-c1ccc(Oc3ccccc3)cc1)nn2C1CCN(C(=O)N2CCN(CCC3CCN(c4ccc5c(c4)C(=O)N(C4CCC(=O)NC4=O)C5=O)CC3)CC2)CC1 (centres unmarked) [Compound 97, 5-(4-(2-(4-(4-(4-amino-3-(4-phenoxyphenyl)-1H-pyrazolo[3,4-d]pyrimidin-1-yl)piperidine-1-carbonyl)piperazin-1-yl)ethyl)piperidin-1-yl)-2-(2,6-dioxopiperidin-3-yl)isoindoline-1,3-dione] | 5.00 to 6.00 | 5.00 to 6.00
> 75% | > 50 nM | Nc1ncnc2c1c(-c1ccc(Oc3ccccc3)cc1)nn2C1CCN(C(=O)N2CCC(CCCN3CCN(c4ccc5c(c4)CN(C4CCC(=O)NC4=O)C5=O)CC3)CC2)CC1 (centres unmarked) [Compound 118, 3-(5-(4-(3-(1-(4-(4-amino-3-(4-phenoxyphenyl)-1H-pyrazolo[3,4-d]pyrimidin-1-yl)piperidine-1-carbonyl)piperidin-4-yl)propyl)piperazin-1-yl)-1-oxoisoindolin-2-yl)piperidine-2,6-dione] | < 5.00 | 5.00 to 6.00
> 90% | 10 to 50 nM | Nc1ncnc2c1c(-c1ccc(Oc3ccccc3)cc1)nn2[C@@H]1CCCN(C2CCN(C(=O)N3CCC(CN4CCC(c5ccc6c(c5)C(=O)N(C5CCC(=O)NC5=O)C6=O)CC4)CC3)CC2)C1 (stereo partly drawn) [Compound 173, 5-(1-((1-((R)-3-(4-amino-3-(4-phenoxyphenyl)-1H-pyrazolo[3,4-d]pyrimidin-1-yl)-[1,4′-bipiperidine]-1′-carbonyl)piperidin-4-yl)methyl)piperidin-4-yl)-2-(2,6-dioxopiperidin-3-yl)isoindoline-1,3-dione] | 5.00 to 6.00 | > 6.00
